Experimental data taken from US9469659B2, “Compositions and methods for improving glucose uptake” (Board of Supervisors of Louisiana State University and …, priority 2012, dated 2016).

Tests used:
[1] = system: 3T3-L1 pre adipocytes; test: Cell toxicity of compounds at various doses; format: cell-based
Experimental: For the following screens, compounds 1-5 were dissolved in DMSO. 3T3-L1 pre adipocytes were first exposed to different concentrations (5 μM, 10 μM, 20 μM, 50 μM and 100 μM) of the compounds to test for toxicity compared with DMSO control exposure. Exposure to other concentrations was followed until Day 5. Compound 2 was the most toxic at 20 μM on Day 5.

[2] = system: 3T3-L1 cells; test: Glucose uptake under basal and insulin stimulated conditions (FIG. 2); format: cell-based; details: 24 hours exposure
Experimental: Next, glucose uptake by 3T3-L1 cells exposed to compounds 1-5 was determined at 5 μM concentration. Cells were exposed to compounds 1-5 for 24 hours and exposure to DMSO was used as the control group. 2-Deoxy glucose (2-DG) uptake was determined using the analog compounds without serum starving the cells prior to determining glucose uptake. As indicated in FIG. 1 glucose uptake in 3T3-L1 pre-adipocytes was determined by exposing cells to compounds 1-5 for 24 hours without serum starvation. All compounds show significant increase (p<0.05) in glucose uptake under basal conditions compared with the DMSO treated control cells. To confirm these observations glucose uptake was examined under basal and insulin stimulated conditions with cells exposed to compounds 1-5 for 24 hours.

[3] = 5 μM, Day 1, 3T3-L1 pre adipocytes
[4] = 5 μM, Day 2, 3T3-L1 pre adipocytes
[5] = 5 μM, Day 3, 3T3-L1 pre adipocytes
[6] = 5 μM, Day 4, 3T3-L1 pre adipocytes
[7] = 5 μM, Day 5, 3T3-L1 pre adipocytes
[8] = 10 μM, Day 1, 3T3-L1 pre adipocytes
[9] = 10 μM, Day 2, 3T3-L1 pre adipocytes
[10] = 10 μM, Day 3, 3T3-L1 pre adipocytes
[11] = 10 μM, Day 4, 3T3-L1 pre adipocytes
[12] = 10 μM, Day 5, 3T3-L1 pre adipocytes
[13] = 20 μM, Day 1, 3T3-L1 pre adipocytes
[14] = 20 μM, Day 2, 3T3-L1 pre adipocytes
[15] = 20 μM, Day 3, 3T3-L1 pre adipocytes
[16] = 20 μM, Day 4, 3T3-L1 pre adipocytes
[17] = 20 μM, Day 5, 3T3-L1 pre adipocytes
[18] = 50 μM, Day 1, 3T3-L1 pre adipocytes
[19] = 50 μM, Day 2, 3T3-L1 pre adipocytes
[20] = 100 μM, Day 1, 3T3-L1 pre adipocytes
[21] = 100 μM, Day 2, 3T3-L1 pre adipocytes

SMILES	Cell toxicity [1, 3]	Cell toxicity [1, 4]	Cell toxicity [1, 5]	Cell toxicity [1, 6]	Cell toxicity [1, 7]	Cell toxicity [1, 8]	Cell toxicity [1, 9]	Cell toxicity [1, 10]	Cell toxicity [1, 11]	Cell toxicity [1, 12]	Cell toxicity [1, 13]	Cell toxicity [1, 14]	Cell toxicity [1, 15]	Cell toxicity [1, 16]	Cell toxicity [1, 17]	Cell toxicity [1, 18]	Cell toxicity [1, 19]	Cell toxicity [1, 20]	Cell toxicity [1, 21]	Glucose uptake under basal and insulin stimulated conditions [2]	other results
N#CC(Nc1ccc([B-](F)(F)F)cc1)c1cc(-c2ccc(F)cc2)on1 (stereo not drawn) [Compound 4]	0%	0-5%	0-5%	0-5%	0-5%	0-5%	>5%	≧10%	≧10%	≧10%	5-10%	10-15%	≧15%	≧15%	≧15%	30-40%	90-95%	>90%	95-100%	most significant increase	
N#CC(Nc1ccc([B-](F)(F)F)cc1)c1ccco1 (stereo not drawn) [Compound 5]	0%	0-5%	0-5%	0-5%	0-5%	0-5%	>5%	≧10%	≧10%	≧10%	5-10%	10-15%	10-15%	10-15%	10-15%	>15%	90-95%	>90%	95-100%	most significant increase	
CC1(C)OB(c2ccc(NC(C#N)c3cc(-c4ccc(F)cc4)on3)cc2)OC1(C)C (stereo not drawn) [Compound 1]	0%	0-5%	0-5%	0-5%	≧5%	5-10%	5-10%	5-10%	5-10%	5-10%	5-10%	≧10%	≧10%	10-15%	10-15%	30-40%	90-95%	>90%	95-100%		
Cc1cc(C(C#N)Nc2ccc(B3OC(C)(C)C(C)(C)O3)cc2)no1 (stereo not drawn) [Compound 3]	0%	0-5%	0-5%	0-5%	0-5%	0-5%	>5%	≧10%	≧10%	≧10%	5-10%	15-20%	>20%	20-30%	≧30%	15-20%	90-95%	60-70%	95-100%	most significant increase	
CC1(C)OB(c2ccc(NC(C#N)c3cc(-c4ccccc4)on3)cc2)OC1(C)C (stereo not drawn) [Compound 2]	0%	0-5%	0-5%	10-20%	10-20%	5-10%	>10%	≧10%	30-40%	≧40%	>10%	20-30%	40-50%	60-70%	70-80%	30-40%	95-100%	>90%	95-100%		Toxicity (in words, ranking among compounds) [1, 17]: most toxic
